# Measured values as given in US6949648B2, “Condensed pyrazole derivatives, process for producing the same and use thereof” (Takeda Pharmaceutical Company Limited, priority 2000, dated 2005).
# Structures can show the parent of a compound that is named as a salt. Marks after values point to notes of the source that are not given here.
# What was measured:
# IFN-γ = test: Effect on cytokine production of mice sensitized by controlled-release ovalbumin: IFN-γ; format: in vivo, BALB/c mouse; conditions: 30 mg/kg b.w. orally, 5 days a week during 9-day period, splenic cells incubated with OVA 3 days, ELISA; for inhibition in vivo at 30 mg/kg: Mus musculus, po, read-out: Suppression Rate (%) IFN-γ
# Experimental: (§1) Effect on Cytokine Production of Mice Sensitized by Controlled-Release Ovalbumin
# (§2) An osmotic pump (Alza Co., USA) containing a solution (100 μL) containing 1.0 mg of ovalbumin (OVA; albumin chicken egg grade III, Sigma Chemical) was implanted in the back of a male BALB/c mouse (Charles River) of 8 weeks old under ether anesthesia, and the mouse is sensitized by the controlled-release ovalbumin. After 11 days from implantation of the pump, a sample of spleen was removed, and a splenic cell suspension was prepared by the use of the RPMI-1640 medium (Bio Whittaker Inc., USA) containing inactivated fetal bovine serum (10% V/V; Bio Whittaker Inc., USA), 2-mercaptoethanol (50 μM), and gentamicin (20 μg/ml). A sample compound (30 mg/kg b.w.) was suspended in 0.4 ml of methylcellulose (MC), and the suspension was orally administered, 5 days a week during the 9-day period from the initiation day of sensitization to the day before the day of blood sample collection (1 Group, n=10). The splenic cell suspension was adjusted to a concentration of 5.0×10^6 cells/ml, and the resulting suspension (100 μl) was pipetted onto a 96 well U-bottomed plate, each of the wells containing a solution (100 μl/well) of 400 μg/ml OVA, and the plate was incubated at 37° C. in a 5% carbon dioxide gas incubator for 3 days. The cultured media were centrifuged at 200×g for 5 minutes, and the supernatants were collected and the production of IL-4, IL-5 and IFN-γ in each of the supernatants was determined by the ELISA method [Mouse IL-4 Bulk Kit (PerSeptive Biosystems), Mouse IL-5 Bulk Kit (PerSeptive Biosystems), and Mouse IFN-γ Bulk Kit (PerSeptive Biosystems)].
# IL-4 = test: Effect on cytokine production of mice sensitized by controlled-release ovalbumin: IL-4; format: in vivo, BALB/c mouse; conditions: 30 mg/kg b.w. orally, 5 days a week during 9-day period, splenic cells incubated with OVA 3 days, ELISA; for inhibition in vivo at 30 mg/kg: Mus musculus, po, read-out: Suppression Rate (%) IL-4
# Experimental: as §1, §2
# IL-5 = test: Effect on cytokine production of mice sensitized by controlled-release ovalbumin: IL-5; format: in vivo, BALB/c mouse; conditions: 30 mg/kg b.w. orally, 5 days a week during 9-day period, splenic cells incubated with OVA 3 days, ELISA; for inhibition in vivo at 30 mg/kg: Mus musculus, po, read-out: Suppression Rate (%) IL-5
# Experimental: as §1, §2
# OVA-specific IgE = test: Effect on antibody production of ovalbumin-sensitized mice: IgE; format: in vivo, BALB/c mouse; conditions: 30 mg/kg b.w. orally, 5 days a week during 9-day period, serum 11 days after first sensitization, ELISA; for inhibition in vivo at 30 mg/kg: Mus musculus, po, 264 h, read-out: Suppression Rate (%) IgE
# Experimental: (§3) Effect on Antibody Production of Mice Sensitized by Controlled-Release Ovalbumin
# (§4) A male BALB/c mouse (Charles River) of 7 weeks old was sensitized by intraabdominal administration, twice at an interval of a week, of a mixture of 10 μg/mouse of ovalbumin (OVA; albumin chicken egg grade III; Sigma Chemical) and 1 mg of aluminum hydroxide hydrate gel suspension (Alum; LSL Co. LTD.). After 11 days from the first sensitization, blood was collected from beneath eye under ether anesthesia, and the amount of OVA-specific IgE, IgG1 (Th2 type) and IgG2a (Th1 type) antibodies in the serum were determined by the ELISA method. A sample compound (30 mg/kg b.w.) was suspended in 0.4 ml of methylcellulose (MC), and the suspension was orally administered, 5 days a week during the 9-day period from the initiation day of sensitization to the day before the day of blood sample collection (1 Group, n=8 to 10).
# [1] = system: OVA-specific IgG2a (Th1 type); test: Effect on antibody production of ovalbumin-sensitized mice: IgG2a; format: in vivo, BALB/c mouse; conditions: 30 mg/kg b.w. orally, 5 days a week during 9-day period, serum 11 days after first sensitization, ELISA; for inhibition in vivo at 30 mg/kg: Mus musculus, po, 264 h, read-out: Suppression Rate (%) IgG2a
# Experimental: as §3, §4
SMILES,inhibition in vivo at 30 mg/kg (IFN-γ) [%],inhibition in vivo at 30 mg/kg (IL-4) [%],inhibition in vivo at 30 mg/kg (IL-5) [%],further results
"Cc1cccc2c(=O)c3c(C)nn(-c4ccccn4)c3[nH]c12 [Example 1-47, 3,8-Dimethyl-1-(2-pyridinyl)-1,9-dihydro-4H-pyrazolo[3,4-b]quinolin-4-one]",31.8,49.9,61.1,inhibition in vivo at 30 mg/kg (OVA-specific IgE): 4.9%; inhibition in vivo at 30 mg/kg [1]: -17.1%
"Cc1cccc2nc3c(c(C)nn3-c3ccccn3)c(N)c12 [Example 1-44, 3,5-Dimethyl-1-(2-pyridinyl)-1H-pyrazolo[3,4-b]quinolin-4-ylamine]",36.3,68.2,3.1,melting point: 252 to 255 °C
"Cc1cccc2c(N)c3c(C)nn(-c4ccccn4)c3nc12 [Example 1-46, 3,8-Dimethyl-1-(2-pyridinyl)-1H-pyrazolo[3,4-b]quinolin-4-ylamine hydrochloride]",-132,80.4,5.2,–
"CCOc1cccc(-n2nc(C)c3c(=O)c4cccc(C)c4[nH]c32)n1 [Example 1-61, 3,8-Dimethyl-1-(6-ethoxy-2-pyridinyl)-1,9-dihydro-4H-pyrazolo[3,4-b]quinolin-4-one]",-8.7,16,26.1,–
CCOc1cccc(-n2nc(C)c3c(N)c4cccc(C)c4nc32)n1 [Example 1-60],–,–,–,Suppression Rate (%) IFN-γ (IFN-γ): 23.4%; Suppression Rate (%) IL-4 (IL-4): 56.7%; Suppression Rate (%) IL-5 (IL-5): 59.3%; Suppression Rate (%) IgE (OVA-specific IgE): 54.9** %; Suppression Rate (%) IgG2a [1]: 47.8%
"CSc1ccc2[nH]c3c(c(C)nn3-c3ccccn3)c(=O)c2c1 [Example 1-50, 3-Methyl-6-(methylsulfanyl)-1-(2-pyridinyl)-1,9-dihydro-4H-pyrazolo[3,4-b]quinolin-4-one]",11.1,45.5,60.2,melting point: 182 to 185 °C; inhibition in vivo at 30 mg/kg (OVA-specific IgE): 22%; inhibition in vivo at 30 mg/kg [1]: 19.5%
"Cc1nn(-c2ncccn2)c2nc3ccccc3c(N)c12 [Example 1-65, 3-Methyl-1-(2-pyrimidinyl)-1H-pyrazolo[3,4-b]quinolin-4-ylamine hydrochloride]",-15.7,8.1,16.5,–
"Cc1nn(-c2cccnc2)c2[nH]c3ccccc3c(=O)c12 [Example 1-64, 3-Methyl-1-(3-pyridinyl)-1,9-dihydro-4H-pyrazolo[3,4-b]quinolin-4-one]",-6.8,49.1,39.9,–
"Cc1nn(Cc2ccccn2)c2[nH]c3ccccc3c(=O)c12 [Example 1-69, 3-Methyl-1-(2-pyridinylmethyl)-1,9-dihydro-4H-pyrazolo[3,4-b]quinolin-4-one]",8.3,19.4,50,–
"COc1cccc2c(N)c3c(C)nn(-c4ccccn4)c3nc12 [Example 1-48, 8-Methoxy-3-methyl-1-(2-pyridinyl)-1H-pyrazolo[3,4-b]quinolin-4-ylamine hydrochloride]",-7.6,31.6,16.2,–
"Cc1nn(-c2ccccn2)c2[nH]c3ccc(Cl)cc3c(=O)c12 [Example 1-51, 6-Chloro-3-methyl-1-(2-pyridinyl)-1,9-dihydro-4H-pyrazolo[3,4-b]quinolin-4-one]",-11.2,31.9,53.7,–
"CCOc1cccc(-n2nc(C)c3c(Cl)c4c(C)cccc4nc32)n1 [Example 1-57, 4-Chloro-3,5-dimethyl-1-(6-ethoxy-2-pyridinyl)-1H-pyrazolo[3,4-b]quinoline]",36.7,43.2,53.9,inhibition in vivo at 30 mg/kg (OVA-specific IgE): 23.6%; inhibition in vivo at 30 mg/kg [1]: -55.1%
"Cc1cccnc1-n1nc(C)c2c(N)c3cccc(C)c3nc21 [Example 1-62, 3,8-Dimethyl-1-(3-methyl-2-pyridinyl)-1H-pyrazolo[3,4-b]quinolin-4-ylamine]",-13.8,19.4,4.8,–
"Cc1nn(-c2ccccn2)c2nc3ccccc3c(N)c12.Cl [Example 1-36, 3-Methyl-1-(2-pyridinyl)-1H-pyrazolo[3,4-b]quinolin-4-ylamine hydrochloride]",-131,99.8,61.5,melting point: 268 to 271 °C; inhibition in vivo at 30 mg/kg (OVA-specific IgE): 64.2%; inhibition in vivo at 30 mg/kg [1]: 23.4%
"COc1cc2[nH]c3c(c(C)nn3-c3ccccn3)c(=O)c2cc1OC [Example 1-49, 6,7-Dimethoxy-3-methyl-1-(2-pyridinyl)-1,9-dihydro-4H-pyrazolo[3,4-b]quinolin-4-one]",-9,13.9,11.8,–
"Cc1cccnc1-n1nc(C)c2c(Cl)c3ccccc3nc21 [Example 1-56, 4-Chloro-3-methyl-1-(3-methyl-2-pyridinyl)-1H-pyrazolo[3,4-b]quinoline]",12.2,23.7,12.2,–
"COc1cccc(-n2nc(C)c3c(N)c4cccc(C)c4nc32)n1 [Example 1-59, 3,8-Dimethyl-1-(6-methoxy-2-pyridinyl)-1H-pyrazolo[3,4-b]quinolin-4-ylamine]",-124,66.5,27.8,inhibition in vivo at 30 mg/kg (OVA-specific IgE): 60.7%; inhibition in vivo at 30 mg/kg [1]: 46.3%
"Cc1cccc2c(N)c3c(C)nn(-c4ccc5ccccc5n4)c3nc12 [Example 1-66, 3,8-Dimethyl-1-(2-quinolinyl)-1H-pyrazolo[3,4-b]quinolin-4-ylamine]",50,27.1,34.3,–
